Test results published in article PMC3342448 (Cancer Research, 2012).

Legend:
CAT = CAT (Homo sapiens, UniProt P50281); assay: Cleavage of fluorescent peptide by MT1-MMP catalytic domain; assay type: biochemical; conditions: CAT 10 nM, fluorescent substrate 10 μM
MT1-MMP homodimerization = MT1-MMP homodimerization (Homo sapiens, UniProt P50281); assay: MT1-MMP dimerization test; assay type: cell-based; conditions: compounds 100 μM, 24 h, MCF7-MT-V5 cells transfected with MT1-MMP-FLAG
MMP-2 = target: T1, MMP-2 (Homo sapiens, UniProt P08253); assay: Catalytic activity of MMP-2; assay type: biochemical; conditions: not shown
T1 sequence (P08253 110-660): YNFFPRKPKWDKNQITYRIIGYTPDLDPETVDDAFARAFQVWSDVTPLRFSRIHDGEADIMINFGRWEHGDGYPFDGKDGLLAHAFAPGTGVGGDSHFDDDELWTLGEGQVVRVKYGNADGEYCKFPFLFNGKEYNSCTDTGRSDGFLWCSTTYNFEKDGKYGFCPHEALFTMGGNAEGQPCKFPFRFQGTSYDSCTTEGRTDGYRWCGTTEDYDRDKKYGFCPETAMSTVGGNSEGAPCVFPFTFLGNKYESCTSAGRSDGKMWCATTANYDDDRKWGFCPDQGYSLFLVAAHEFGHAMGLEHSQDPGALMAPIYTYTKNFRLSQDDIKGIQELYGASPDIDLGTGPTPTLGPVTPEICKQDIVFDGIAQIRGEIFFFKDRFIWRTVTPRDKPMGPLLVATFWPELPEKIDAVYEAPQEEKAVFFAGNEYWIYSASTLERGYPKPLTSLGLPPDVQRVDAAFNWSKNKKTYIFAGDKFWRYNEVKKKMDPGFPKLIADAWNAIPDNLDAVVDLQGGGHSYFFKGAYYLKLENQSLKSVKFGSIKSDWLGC

MCF7-β3/MT cells [1] = assay: Cell viability; assay type: cell-based, Human; conditions: 400 μM, 6 h
MT1-MMP = MT1-MMP (Homo sapiens, UniProt P50281); assay: Gelatin zymography of MCF7-β3/MT tumor extracts; assay type: in vivo; conditions: tumor extracts of mice treated 0.5 mg/kg intratumoral
MDA-MB-231 cells = assay: Transwell migration assay on COL-I, MDA-MB-231 cells; assay type: cell-based, Human; conditions: compounds 100 μM
MCF7-β3/MT xenografts = assay: MCF7-β3/MT tumor xenografts in mice; assay type: in vivo
184B5-MT cells [2] = assay: Cell adhesion assay on COL-I and Matrigel, 184B5-MT cells; assay type: cell-based, Human; conditions: compounds 25–100 μM, 1 h adhesion
[3] = Solubility in aqueous solutions; assay type: physicochemical; conditions: 400 μM stock in PBS was highest reachable
184B5-MT cells [4] = assay: Transwell migration assay on COL-I, 184B5-MT cells; assay type: cell-based, Human; conditions: compounds 10–100 μM, 16–18 h
MCF7-β3/MT cells [5] = assay: COL-I degradation assay, MCF7-β3/MT cells; assay type: cell-based, Human; conditions: compound 100 μM, 3 days
cellular MT1-MMP = cellular MT1-MMP (Homo sapiens, UniProt P50281); assay: Gelatin zymography of MMP-2 activation by 184B5-MT cells; assay type: cell-based; conditions: 184B5-MT cells with proMMP-2, compound 1–100 μM

With `CCCC(C)NC(=O)c1ccc(Cl)c(Cl)c1` (stereo not drawn) [compound 9] the “effect on cleavage activity of CAT” value (CAT) was “did not affect the cleavage activity”, the “levels of co-precipitated MT1-MMP-V5 in pull-down samples (homodimerization)” value (MT1-MMP homodimerization) was “significantly reduced” and the “catalytic activity of MMP-2” value (MMP-2) was “did not inhibit”. The “cytotoxicity in MCF7-β3/MT cells” value (MCF7-β3/MT cells [1]) was “did not demonstrate any cytotoxicity”, the “ability of MT1-MMP to activate MMP-2 in tumors” value (MT1-MMP) was “did not affect” and the “migration of MDA-MB-231 cells” value (MDA-MB-231 cells) was “did not show any inhibitory effect”. The “physical damage and necrosis in tumors after injections” value (MCF7-β3/MT xenografts; 0.5 mg/kg intratumoral) was “no physical damage and necrosis”, the tumor phenotype (MCF7-β3/MT xenografts; 0.5 mg/kg intratumoral injections) was “caused a fibrotic tumor phenotype” and the “xenograft angiogenesis (H&E staining)” value (MCF7-β3/MT xenografts; 0.5 mg/kg intratumoral, compared with control mice) was “did not reveal any significant effect”. For the same compound, the “immunoreactivity and levels of COL-I in tumors” value (MCF7-β3/MT xenografts; 0.5 mg/kg intratumoral, experimental versus control) was “significantly enhanced”, the “adhesion of 184B5-MT on Matrigel and COL-I substrates” value (184B5-MT cells [2]) was “did not affect cell adhesion” and the solubility [3] was “limited solubility”. For the same compound, the “migration of 184B5-MT cells on COL-I” value (184B5-MT cells [4]) was “repressed migration of 184B5-MT cells on COL-I in a dose-dependent manner”, the “collagenolytic activity (COL-I degradation) in MCF7-β3/MT cells” value (MCF7-β3/MT cells [5]) was “dramatically reduced” and the “catalytic function of cellular MT1-MMP (MMP-2 activation)” value (cellular MT1-MMP) was “did not inhibit”.
